“Also recorded” adds a separate entry of the source. Structures can show the parent of a compound that is named as a salt.

Common to all, as to format: physicochemical
A short description of data set [1]: Gravimetric vapour sorption (GVS). As for the experimental part: Sorption isotherms were obtained using a Hiden IGASorp moisture sorption analyser, controlled by CFRSorp software. The sample temperature was maintained at 25° C. by a Huber re-circulating water bath. The humidity was controlled by mixing streams of dry and wet nitrogen, with a total flow rate of 250 ml/min. The relative humidity (RH) was measured by a calibrated Vaisala RH probe (dynamic range of 0-95% RH), located near the sample. The weight change, (mass relaxation) of the sample as a function of % RH was constantly monitored by the microbalance (accuracy ±0.001 mg). Typically 10-20 mg of sample was placed in a tared mesh stainless steel basket under ambient conditions. The sample was loaded and unloaded at 40% RH and 25° C. (typical room conditions). A moisture sorption isotherm was performed as outlined below (2 scans giving 1 complete cycle). The standard isotherm was performed at 25° C. at 10% RH intervals over a 0-90% RH range.
The software uses a least squares minimisation procedure together with a model of the mass relaxation, to predict an asymptotic value. The measured mass relaxation value must be within 5% of that predicted by the software, before the next % RH value is selected. The minimum equilibration time was set to 1 hour and the maximum to 4 hours. The sample was recovered after completion of the isotherm and re-analysed by XRPD.

Data set [2] can be described thus: Solubility assessment using free base Hydrate Form 2. The settings on record: RT (cell says RT, head 50° C.). How it is done: The best solvent systems (clear solutions) were methanol:anisole 1:1 and DMSO (10 volumes, at RT), dioxane (10 volumes, 50° C.), chloroform (20 volumes, RT). […]
Data set [3] can be described thus: Polymorph screen: maturation (temperature cycling RT/50° C.) in solvents. How it is done:
One of 21 solvents was added to each vial in a number of aliquots (up to 30 volumes), with shaking. All the samples were then placed under maturation between RT to 50° C. (4 hours at each temperature) for 3 days. After maturation the samples were analysed by XRPD. Clear solutions were cooled to −20° C. (freezer). If no precipitation occurred samples were evaporated at RT.
Samples were placed under maturation between RT-50° C. (4 hours cycle) for 3 days. After maturation the samples were analyzed by XRPD. Clear solutions were then cooled to −20° C. (freezer). If no precipitation occurred, samples were evaporated at RT.
Bis-Sulfuric acid salt Form 1 of Compound 1 (ca. 35 mg) was weighed into vials. The corresponding solvents and solvent mixtures were added in portions of (a total of) 5, 10, 20, and 30 volumes at 50° C., with shaking, aiming for clear solutions. After each addition, the vials were allowed to shake for 20 minutes, after which observations were made. Solutions were allowed to evaporate, whereas slurries were set for 8 hour temperature cycling maturation, between RT and 50° C., for 5 days.
The oils obtained by solvent evaporation were used for the maturation screen. Anhydrous solvents (5 volumes; 100 μL) were used in order to minimise the amount of water present. Any solutions were allowed to slowly evaporate, whereas slurries were set for 8 hour temperature cycling maturation, between RT and 50° C. After 24 hours, most oils had not mixed with the solvents, and these were scratched with a spatula, producing slurries. These were matured for a further 24 hours before performing XRPD analysis.
Amorphous free base Compound 1 (ca. 25 mg) was weighed into vials. The selected solvents and solvent mixtures (5 to 20 volumes) were added with stirring. Any solutions were allowed to slowly evaporate, whereas slurries were set for 8 hour temperature cycling maturation, between RT and 50° C., for 2 days.
Crystals were ground in order to analyse them by XRPD. Suspensions were set for temperature cycling for a total of five days after which time XRPD analysis was carried out. […] Similar to the screen in Example 20, these XRPD patterns show slight differences (FIG. 37). However, solids from both screens obtained from the same solvent show a matching XRPD pattern, also supporting that this is a series of isostructural solvates. […]

Data set [4] in a line: Storage at 40° C./75% RH (solid-state stability). The settings on record: for Stability on storage at 40° C./75% RH: 1 week, solid form by XRPD; for Storage 40° C./75% RH: salt screen solids stored 1 week, outcome / XRPD pattern after storage.
Protocol: The crystalline solids were filtered, dried at ambient conditions, and stored at 40° C./75% RH for 1 week and analyzed by ^1H NMR/IC.
Samples from the screen using amorphous free base Compound 1 were analysed by ^1H-NMR and DSC, and re-analysis by XRPD was also carried out after drying at 50° C./vacuum and storage at 40° C./75% RH (the same sample was dried and stored at elevated humidity).

Turning to `CC(=O)O.COc1cc(-c2cccc3cc([C@H](C)Nc4nc(N)ncc4C#N)n(-c4ccccc4)c(=O)c23)ccn1.COc1cc(-c2cccc3cc([C@H](C)Nc4nc(N)ncc4C#N)n(-c4ccccc4)c(=O)c23)ccn1` [Batch 1 of Form 6], the “GVS: XRPD after the experiment” value in data set [1] is recorded as “anhydrous Form 4”. Also, the “GVS: moisture on loading” value in data set [1] (25° C.) is reported as 6.3% w/w moisture on. For the same compound, the “GVS: reversible moisture uptake between 0-90% RH” value in data set [1] (second cycle) is listed as “cycle shows 4.9%”.

For the compound `COc1cc(-c2cccc3cc([C@H](C)Nc4nc(N)ncc4C#N)n(-c4ccccc4)c(=O)c23)ccn1.O` [FB Hydrate Form 2], the Solubility result in data set [2] (DMSO, 10 vols) is given as “✓ (RT)”; in data set [2] (MeOH/anisole, 10 vols), “✓ (RT)”; in data set [2] (chloroform, 20 vols) it was “✓ (RT)”. The XRPD entry is “Crystalline Form 5” in data set [3] (1-butanol, Maturation); “Crystalline Form 5” in data set [3] (2-MeTHF, evaporation yielded oil, maturation of oil); “Crystalline Form 5” in data set [3] (Acetone, Maturation); “Crystalline Form 5 + Form 1” in data set [3] (DCM:MeOH 1:1, Crystallization in fridge); “Crystalline Form 5” in data set [3] (DCM, Crystallization in fridge); “Amorphous” in data set [3] (DMSO, no crystallization in fridge, set for evaporation). Besides, the XRPD result is on record as “Crystalline Form 5 + Form 3” in data set [3] (Dioxane, evaporation yielded oil, maturation of oil); “Crystalline Form 5” in data set [3] (EtOAc, Maturation); “Crystalline Form 5” in data set [3] (EtOH/5% water, Maturation); “Crystalline Form 2” in data set [3] (EtOH/water 1:1, Maturation); “Crystalline Form 5” in data set [3] (EtOH, Maturation); “Crystalline Form 5” in data set [3] (IPA, Maturation). The XRPD entry in data set [3] (IPAc, Maturation) is listed as “Crystalline Form 5”; in data set [3] (MIBK, Maturation), “Crystalline Form 5”; in data set [3] (MeCN/5% water, Crystallization in fridge), “Crystalline Form 5”; in data set [3] (MeOH/anisole, Crystallization in fridge), “Crystalline Form 5”; in data set [3] (THF, Crystallization in fridge), “Crystalline Form 5”; in data set [3] (acetonitrile, Maturation) it was “Crystalline Form 5”. For the same compound, the XRPD result in data set [3] (chloroform, cooling in fridge yielded oil, maturation of oil) is given as “Crystalline Form 5”.

Regarding `COc1cc(-c2cccc3cc([C@H](C)Nc4nc(N)ncc4C#N)n(-c4ccccc4)c(=O)c23)ccn1` [Form 1 of the hydrochloride salt of Compound 1] [(S)-2-amino-4-((1-(8-(2-methoxypyridin-4-yl)-1-oxo-2-phenyl-1,2-dihydroisoquinolin-3-yl)ethyl)amino)pyrimidine-5-carbonitrile], the “Stability on storage at 40° C./75% RH” value in data set [4] is on record as “deliquesces”; in data set [4] (listed as hydrochloride), “deliquesced”. In data set [4] (listed as Hydrochloric acid), the “Storage 40° C./75% RH” value was “Deliquesced”.

As to `COc1cc(-c2cccc3cc([C@H](C)Nc4nc(N)ncc4C#N)n(-c4ccccc4)c(=O)c23)ccn1` [Form 1 of the isethionate salt of Compound 1] [(S)-2-amino-4-((1-(8-(2-methoxypyridin-4-yl)-1-oxo-2-phenyl-1,2-dihydroisoquinolin-3-yl)ethyl)amino)pyrimidine-5-carbonitrile], the “Stability on storage at 40° C./75% RH” value in data set [4] is reported as “deliquesces”; in data set [4] (listed as isethionate) it was “deliquesced”. Also, the “Storage 40° C./75% RH” value in data set [4] (listed as 2-Hydroxyethane sulfonic acid) was “Deliquesced”.

With `COc1cc(-c2cccc3cc([C@H](C)Nc4nc(N)ncc4C#N)n(-c4ccccc4)c(=O)c23)ccn1` [Form 4 of Free Base Compound 1], the “GVS: moisture on loading” value in data set [1] (25° C.) is reported as 0.3 % w/w. For the same compound, the “GVS: uptaken between 70-90% RH” value in data set [1] (25° C., with hysteresis on desorption) is 4.8 % w/w.

With `COc1cc(-c2cccc3cc([C@H](C)Nc4nc(N)ncc4C#N)n(-c4ccccc4)c(=O)c23)ccn1` [Form 4 of the free base of Compound 1, (S)-2-amino-4-((1-(8-(2-methoxypyridin-4-yl)-1-oxo-2-phenyl-1,2-dihydroisoquinolin-3-yl)ethyl)amino)pyrimidine-5-carbonitrile], the “XRPD after Storage at 40° C./75% RH” value in data set [4] (screening sample from H2O) was “No changes”. Also, the “GVS: form change with humidity” value in data set [1] (above 80% RH) is listed as “hydrates above 80% RH, but reversibly dehydrates back at 40% RH”.

As for `COc1cc(-c2cccc3cc([C@H](C)Nc4nc(N)ncc4C#N)n(-c4ccccc4)c(=O)c23)ccn1` [Form 6 of the free base of Compound 1, (S)-2-amino-4-((1-(8-(2-methoxypyridin-4-yl)-1-oxo-2-phenyl-1,2-dihydroisoquinolin-3-yl)ethyl)amino)pyrimidine-5-carbonitrile], the “Stability on storage at 40° C./75% RH” value in data set [4] is recorded as “converts to Form 3”. In addition, in data set [4] (elevated humidity conditions, solid form), the “Storage at elevated humidity” value is listed as “conversion to Hydrate Form 3”. In addition, the “GVS: form change with humidity” value in data set [1] (at 0% RH) was “Desolvation to the anhydrous Form 4”.

Regarding `CC(=O)c1ccc2c(c1)[C@@H]1C=CC[C@@H]1[C@H](c1cc3c(cc1Br)OCO3)N2` [amorphous material], the XRPD result was “Crystalline Form 5” in data set [3] (2-MeTHF 200 μL, cycling RT/50° C.); “Crystalline Form 5” in data set [3] (Acetone 100 μL, cycling RT/50° C.); “Crystalline Form 5” in data set [3] (Acetonitrile 200 μL, cycling RT/50° C.); “Crystalline Form 5” in data set [3] (DCM 150 μL, cycling RT/50° C.); “Crystalline Form 5” in data set [3] (DCM:MeOH 1:1 150 μL, cycling RT/50° C.); “Crystalline Form 5” in data set [3] (DME 150 μL, cycling RT/50° C.). Further, the XRPD entry in data set [3] (EtOAc 100 μL, cycling RT/50° C.) is reported as “Crystalline Form 5”; in data set [3] (EtOH 250 μL, cycling RT/50° C.), “Crystalline Form 5”; in data set [3] (EtOH/5% water 150 μL, cycling RT/50° C.), “Crystalline Form 5”; in data set [3] (H2O 450 μL, cycling RT/50° C.) it was “Partially crystalline =; also recorded: matches FB Pattern 4”; in data set [3] (IPA 150 μL, cycling RT/50° C.) it was “Crystalline Form 5”; in data set [3] (IPAc 300 μL, 16 hours maturation), “Crystalline Form 5”. Besides, the XRPD result in data set [3] (MIBK 100 μL, cycling RT/50° C.) is reported as “Crystalline Form 5”; in data set [3] (MeCN/5% water 150 μL, cycling RT/50° C.), “Crystalline Form 5”; in data set [3] (MeOH 250 μL, cycling RT/50° C.) it was “Crystalline Form 5”; in data set [3] (TBME 300 μL, cycling RT/50° C.), “Crystalline Form 5”; in data set [3] (THF 150 μL, cycling RT/50° C.), “Crystalline Form 5”; in data set [3] (THF/5% water 150 μL, cycling RT/50° C.), “Crystalline Form 5”.

These data come from patent US9481667B2, “Salts and solid forms of isoquinolinones and composition comprising and methods of using the same” (Infinity Pharmaceuticals, Inc., priority 2013, dated 2016).
